Reference: US7935814B2, “Nitroguanosine-3′ 5′-cyclic monophosphate compound and protein kinase G activating agent” (Kumamoto University, priority 2005, dated 2011)

How the values were obtained:
[1] = test system: excised rat carotid artery ring specimen; assay: Effect of relaxing vascular smooth muscle: phenylephrine pre-contracted excised rat carotid artery ring specimen, Magnus equipment; conditions: for concentration required for exertion of the tension variation of 0.1 g: 100 nM phenylephrine pre-contraction, resting tension 1 g
Description: The effect of relaxing vascular smooth muscle exerted by 8-nitroguanosine-3′,5′-cyclic monophosphate was determined according to the method of Magnus R (Ergen Physiol. 2, 637-672, 1903) by causing phenylephrine, which is an α1 adrenergic receptor agonist, to act to cause pre-contraction of an excised rat carotid artery ring specimen, adding 8-nitroguanosine-3′,5′-cyclic monophosphate at different concentrations, and then determining the resulting relaxing effect using Magnus laboratory equipment, Specifically, an SD rat (male, 10-week-old, body weight of 350 g, CHARLES RIVER LABORATORIES JAPAN, INC.) was sacrificed under ether anesthesia, a carotid artery was excised, a stainless-steel bar was inserted into the intravascular lumen, and then endothelial cells were removed through scraping, thereby preparing ring vascular specimens of approximately 4 mm each. The vascular specimens were immersed in 3 ml of a Krebs buffer (1.2 mM NaHPO4, 120 mM NaCl, 5.9 mM KCl, 2.5 mM CaCl2, 1.2 mM MgCl2, 15.5 mM NaHCO3, and 11.5 mM glucose). The Krebs buffer used herein had been previously kept at 37° C., aerated with 95% O2+5% CO2 for oxygenation, and adjusted to pH of 7.4. The ring vascular specimens were fixed within a microtissue organ bath MTOB-2 (produced by Labo Support Co., Ltd.). Isometric tension was measured at the resting tension of 1 g using an isometric transducer and an amplifier for such transducer (AG-621G Nihon Kohden Corporation). A PowerLab data acquisition apparatus (AD instruments) was used for data analysis. 1-Phenylephrine hydrochloride (produced by Wako Pure Chemical Industries, Ltd.) was added at a final concentration of 100 nM to the Krebs buffer, so as to sufficiently contract the blood vessels. 8-Nitroguanosine-3′,5′-cyclic monophosphate and 8-Br-cGMP were each cumulatively administered at final concentrations of 1 μM, 3 μM, 10 μM, 30 μM, 100 μM, and 300 μM. The relaxing action on vascular smooth muscle was determined. […] In particular, whereas the 8-nitroguanosine-3′,5′-cyclic monophosphate concentration required for exertion of the tension variation of 0.1 g was 10 μM, the 8-Br-cGMP concentration required for the same was 30 μM.

protein kinase G = biological target: T1, protein kinase G (Homo sapiens, UniProt Q13976); assay: Effect of activating protein kinase G: phosphorylation of Ser 157 of VASP detected by Western blotting in human uterine smooth muscle cells; format: cell-based; conditions: for 50-kDa band of VASP having the phosphorylated Ser at position 157 (anti-VASP (Ser157) antibody): 1 mM compound, 5, 10, 15 and 30 minutes after addition, no bands at 0 minutes
T1 construct: host or cells: human uterine smooth muscle cells
T1 sequence (Q13976 1-671): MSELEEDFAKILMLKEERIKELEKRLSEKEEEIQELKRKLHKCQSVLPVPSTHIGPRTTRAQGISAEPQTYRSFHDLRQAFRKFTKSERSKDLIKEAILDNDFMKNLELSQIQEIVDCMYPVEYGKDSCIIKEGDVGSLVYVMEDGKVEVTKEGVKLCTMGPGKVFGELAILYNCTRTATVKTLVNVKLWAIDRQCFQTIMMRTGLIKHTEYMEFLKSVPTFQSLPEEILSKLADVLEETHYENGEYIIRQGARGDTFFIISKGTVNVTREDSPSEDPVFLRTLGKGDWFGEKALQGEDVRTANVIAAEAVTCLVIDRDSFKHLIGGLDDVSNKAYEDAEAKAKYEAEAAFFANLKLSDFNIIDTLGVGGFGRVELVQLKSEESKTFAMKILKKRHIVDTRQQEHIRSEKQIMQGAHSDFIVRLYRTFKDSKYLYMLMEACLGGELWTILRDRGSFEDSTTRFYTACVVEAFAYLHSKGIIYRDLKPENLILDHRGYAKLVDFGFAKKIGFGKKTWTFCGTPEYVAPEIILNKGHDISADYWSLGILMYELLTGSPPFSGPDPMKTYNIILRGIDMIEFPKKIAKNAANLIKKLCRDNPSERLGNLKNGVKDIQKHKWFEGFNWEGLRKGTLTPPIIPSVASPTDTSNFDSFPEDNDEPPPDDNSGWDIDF
Description: Intracellular signaling conducted by 8-nitroguanosine-3′,5′-cyclic monophosphate through mediation of protein kinase G was analyzed according to the method of Sergei D. Rybalkin et al (J. Biol. Chem. 277 3310-3317, 2002). Specifically, phosphorylation of Ser at position 157 of VASP (Vasodilator Stimulated Phosphoprotein), a substrate protein of protein kinase G, was detected by Western blotting. Specifically, human uterine smooth muscle cells (produced by CAMBREX) were cultured in Dulbecco's Modified Eagle Medium (DMEM-10% FCS) containing 10% fetal calf serum (FCS). The cells were seeded on a 6-well plate (produced by Falcon) at 4×10^5 cells/well and then cultured for 24 hours. The resultant was washed 3 times using phosphate buffered saline (PBS). Subsequently, DMEM-10% FCS containing 1 mM 8-nitroguanosine-3′,5′-cyclic monophosphate and 1 mM 8-Br-cGMP (produced by SIGMA) was added to the cells. Medium was immediately removed at 5 minutes, 10 minutes, 15 minutes, and 30 minutes after addition, followed by 2 instances of washing with PBS. A cell lysis solution (20 mM Tris-HCl (pH 8.0), 0.15 M NaCl, 1 mM EDTA, 1 mM EGTA, 1% TritonX-100, 2.5 mM sodium pyrophosphate, 1 mM β-glycerolphosphate, […], 1 μg/ml leupeptin, and 1 mM PMSF) was added. The resultant was allowed to stand on ice for 5 minutes, recovered using a cell scraper, transferred into an Eppendorf tube, and then ultrasonicated twice (5 seconds each). […] The protein concentration of the soluble fraction of the supernatant was determined using a BCA protein assay (produced by PIERCE). […] The resultant was then washed 3 times with TBST (10 minutes each), chemiluminescence was detected using LAS 1000plus (produced by FujiFilm) and ECL-plus (produced by Amersham Biosciences) as color developers, and then image files were incorporated. […] As is understood from the results in FIG. 1, no bands were detected at 0 minutes, but a 50-kDa band of VASP having the phosphorylated Ser at position 157 was detected at 5, 10, 15, and 30 minutes after addition of 8-nitroguanosine-3′,5′-cyclic monophosphate or 8-Br-cGMP.

[2] = endothelium-removed rat carotid artery ring

Row | SMILES | concentration required for exertion of the tension variation of 0.1 g [1, 2] [µM] | 50-kDa band of VASP having the phosphorylated Ser at position 157 (anti-VASP (Ser157) antibody) (protein kinase G) | relaxing effect on blood vessel contracted using phenylephrine ([1]; endothelium-removed rat carotid artery ring, 100 nM phenylephrine, cumulative 1-300 μM) | effect of relaxing vascular smooth muscle relative to 8-Br-cGMP ([1]; rat carotid artery ring, from concentrations giving tension variation of 0.1 g) | 50-kDa band shifted to the higher molecular weight side because of phosphorylation (antibody recognizing the entire VASP molecule) (protein kinase G; 1 mM compound, at 5 minutes or more after addition, almost no 50-kDa band at 0 minutes)
1 | Nc1nc2c(nc(Br)n2[C@@H]2O[C@@H]3COP(=O)(O)O[C@H]3[C@H]2O)c(=O)[nH]1 [8-Br-cGMP, 8-bromoguanosine-3′,5′-cyclic monophosphate, reference compound] | 30 | detected | – | – | –
2 | Nc1nc2c(nc([N+](=O)[O-])n2C2O[C@@H]3COP(=O)(O)OC3C2O)c(=O)[nH]1 (stereo partly shown) [8-nitroguanosine-3′,5′-cyclic monophosphate] | 10 | detected | exerted a relaxing effect | approximately 3 times | detected in all cases
